From patent US20060084599A1, “Compositions, methods and kits relating to notch signaling” (Maine Medical Center, priority 2003, published 2006)

Experiments:
[1] = test system: FGF gene family transcripts; test: RT-PCR of FGF gene family expression; assay type: cell-based, murine; conditions: stable NIH 3T3 cell transfectants expressing the ligand
Protocol: Total RNA from vector control, sJ1, caN1 and dnN1 stable transfectants was isolated using Tri Reagent™ (Sigma) according to the manufacturer's protocol. cDNA was obtained from 5 μg total RNA with SuperScript™ (Invitrogen) reverse transcriptase using an oligo dT primer (Invitrogen). The following specific primers were purchased from IDT and used for RT-PCR analysis. Sense primers are indicated by (s); Antisense primers are indicated by (as): […]
PCR amplification was performed for 45 cycles as follows: 40 seconds at 94° C., 40 seconds at 50° C. (for FGF2, FGF3, FGF4 and FGFR3) or at 55° C. (for FGF6, FGF7, FGF8, FGF9, FGF10, FGFR1 and FGFR2), 1 minute at 72° C. For FGF5, RT-PCR analysis was performed as described (Ozawa et al., 1998, J. Biol. Chem. 273: 29262-29271) and all amplified DNA was visualized with ethidium bromide on 1.5% agarose gels.

FGF1.A promoter = FGF1.A promoter luciferase reporter; assay type: cell-based, murine; conditions: sJ1 NIH 3T3 cell transfectants versus insert-less vector
Protocol: In order to confirm the sJ1-dependent function of the FGF1.A promoter, the corresponding 1.8 Kbp region (Madiai et al., 1999, J. Biol. Chem. 274:11937-11944) was cloned into a promoter-less firefly luciferase reporter vector and FGF1.A-driven firefly luciferase activity was evaluated in both insert-less vector and sJ1 NIH 3T3 cell transfectants.

NSC populations = test: NSC clonal expansion on full-length Jagged1 NIH 3T3 feeder layer; assay type: cell-based; conditions: 5 μg/ml thrombin
Excerpt: To further evaluate the activity of thrombin as a modifier of Jagged1, the clonal expansion studies were repeated using NSC populations cultured in the presence of a viable full-length Jagged1 NIH 3T3 cell transfectant feeder layer.

human Jagged1 [2] = biological target: T1, human Jagged1 (Homo sapiens, UniProt P78504, A1171G); test: Thrombin cleavage of in vitro translated Jagged1 and Edman microsequencing; assay type: biochemical; conditions: α-thrombin, 15 minutes at 37° C.
T1 construct: the full-length human Jagged1 transcript was in vitro translated; made in house; host or cells: cell-free: T7-coupled reticulocyte lysate system (Promega)
T1 sequence (P78504 34-1218 A1171G): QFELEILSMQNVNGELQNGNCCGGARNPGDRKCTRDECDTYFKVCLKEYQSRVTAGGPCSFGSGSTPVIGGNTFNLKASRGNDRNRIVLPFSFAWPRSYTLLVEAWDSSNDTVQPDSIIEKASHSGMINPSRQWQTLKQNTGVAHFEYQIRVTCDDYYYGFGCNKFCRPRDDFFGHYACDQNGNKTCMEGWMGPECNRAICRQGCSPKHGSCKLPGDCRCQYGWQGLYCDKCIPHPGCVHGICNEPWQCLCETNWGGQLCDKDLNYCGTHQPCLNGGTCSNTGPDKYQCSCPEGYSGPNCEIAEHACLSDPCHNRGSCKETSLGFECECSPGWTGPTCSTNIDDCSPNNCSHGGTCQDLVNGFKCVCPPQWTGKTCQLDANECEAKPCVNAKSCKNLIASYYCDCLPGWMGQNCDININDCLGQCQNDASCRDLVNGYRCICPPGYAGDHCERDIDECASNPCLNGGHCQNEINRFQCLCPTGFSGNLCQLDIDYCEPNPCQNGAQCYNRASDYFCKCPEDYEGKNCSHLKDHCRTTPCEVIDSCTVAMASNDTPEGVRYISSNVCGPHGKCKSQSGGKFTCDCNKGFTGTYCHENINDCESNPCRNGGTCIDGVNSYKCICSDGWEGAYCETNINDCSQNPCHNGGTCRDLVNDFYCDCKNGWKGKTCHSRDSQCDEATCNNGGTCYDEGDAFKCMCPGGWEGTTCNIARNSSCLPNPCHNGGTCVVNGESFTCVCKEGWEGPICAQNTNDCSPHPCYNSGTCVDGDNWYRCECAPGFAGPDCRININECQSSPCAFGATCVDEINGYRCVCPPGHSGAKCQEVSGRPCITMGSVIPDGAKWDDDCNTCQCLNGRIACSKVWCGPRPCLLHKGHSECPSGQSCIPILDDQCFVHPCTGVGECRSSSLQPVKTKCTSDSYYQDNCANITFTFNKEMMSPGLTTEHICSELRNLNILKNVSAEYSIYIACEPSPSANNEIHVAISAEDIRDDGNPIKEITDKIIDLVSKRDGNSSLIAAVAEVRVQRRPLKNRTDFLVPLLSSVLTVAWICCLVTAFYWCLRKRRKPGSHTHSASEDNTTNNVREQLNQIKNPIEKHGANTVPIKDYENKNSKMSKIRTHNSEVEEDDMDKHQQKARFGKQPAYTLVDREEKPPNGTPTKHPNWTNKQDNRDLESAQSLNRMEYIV
Protocol: (§1) A plasmid containing human Jagged1 (Zinrin et al., 1996, J. Biol. Chem. 271:32499-32502) was in vitro transcribed and in vitro translated in the presence of a (^35S)-Met/Cys protein-labeling mixture (Amersham) using the T7-coupled reticulocyte lysate system according to the manufacturer's instructions (Promega) in a total volume of 50 μl. After 60 minutes incubation at 30° C., 0.05% DTT was added, half of the reaction mixture incubated with 10 μg α-thrombin for 15 minutes at 37° C., and the reaction stopped by boiling in the presence of SDS-PAGE sample buffer. The samples were resolved by 12% SDS-PAGE, transferred to a nitrocellulose membrane, and analyzed by autoradiography. The bands corresponding to the thrombin cleavage products were excised and subjected to automated Edman microsequencing (Applied Bio Sciences). The products of each cycle were collected prior to resolution by HPLC, added to liquid scintillation fluid (Beckman) and the (^35S) samples quantitated by liquid scintillation spectroscopy (Beckman).

human Jagged1 [3] = biological target: T2, human Jagged1 (Homo sapiens, UniProt P78504); test: as above; assay type: biochemical; conditions: Edman chemistry of 95 kDa fragment
T2 construct: the full-length human Jagged1 transcript was in vitro translated; made in house; host or cells: cell-free: T7-coupled reticulocyte lysate system (Promega)
T2 sequence (P78504 34-1218 A1171G): as above
Protocol: as §1

FGF1 transcript = test: Nuclear run-on analysis of FGF1 transcription; assay type: cell-based, murine
Protocol: Approximately either 1×10^7 Swiss or NIH 3T3 cells were harvested and washed using ice-cold 50 mM sodium phosphate buffer, pH 7.0 containing 15 mM NaCl. Cell pellets were lysed in 4 ml of ice-cold 10 mM Tris-HCl, pH 7.5, containing 3 mM CaCl2, 3 mM MgCl2, 10 mM NaCl, and 0.5 % NP-40. The nuclear pellet was resuspended in glycerol storage buffer (50 mM Tris-HCl, pH 8.3 containing 40% glycerol, 5 mM MgCl2 and 0.1 mM EDTA), the nuclei were snap frozen, and stored in liquid nitrogen. For run-on transcription, 200 μl aliquots of the frozen nuclei were added to 200 μl of reaction buffer (10 mM Tris-HCl, pH 8.3 containing 5 mM MgCl2, 300 mM KCl, 5 mM DTT, 1 mM each of ATP, CTP, and GTP, 40 units of RNase inhibitor and 100 μCi of [^32P]UTP (800 Ci/mmol; Amersham), and incubated at 30° C. for 30 minutes. The mixture was treated with 100 units of RNase-free DNase I for 30 minutes at 30° C. and then incubated with 400 μl of 20 mM Tris-HCl, pH 7.5, containing 2% SDS, 10 mM EDTA, […] proteinase K for 30 minutes at 42° C. Following phenol/CHCl3 extraction, the labelled transcripts were precipitated with isopropanol and dissolved in 50 μl of 10 mM TES, pH 7.5, containing 10 mM EDTA and 0.2% SDS. Linearized plasmid constructs (0.4 μg/dot) containing either the fgf1 or gapdh cDNA were alkali denatured and immobilized onto a Hybond-N^+ membrane (Amersham). Hybridization was performed in 1 ml of ULTRA Hyb (Ambion), with 5×10^6 cpm of radiolabeled RNA and yeast RNA (10 μg/ml) for 18 hours with shaking at 50° C. Membranes were washed twice with washing buffer (2×SSC containing 0.1% SDS) at 50° C. and analyzed using a phosphoimager (Molecular Dynamics).

| Molecule | FGF gene family mRNA expression in transfectants [1] | FGF1.A-driven promoter activity (FGF1.A promoter) | size of NSC colonies on full-length Jagged1 feeder layer (NSC populations) | cleavage of 134 kDa Jagged1 translation product (human Jagged1 [2]) | Jagged1 cleavage site (human Jagged1 [3]) | induction of FGF1 transcript (FGF1 transcript; 10 μg/ml α-thrombin or 5 μM TRAP) | time at which FGF1 mRNA reached a plateau (FGF1 transcript; NIH 3T3 and Swiss 3T3 cells) | time at which FGF1 mRNA was initially detected (FGF1 transcript; NIH 3T3 and Swiss 3T3 cells) |
| --- | --- | --- | --- | --- | --- | --- | --- | --- |
| sJ1: Soluble Jagged1, amino acid residues about 1 to 1067 (SEQ ID NO:3) of full-length human Jagged1 | expression of mRNAs encoding FGF1, FGF3, FGF4, and FGF5 | significant increase in the FGF1.A-driven promoter activity |  |  |  |  |  |  |
| thrombin |  |  | exaggeration of the size of the NSC colonies | cleavage of the full-length Jagged1 protein into 39 kDa and 95 kDa fragments | between residues R348 and G349 | able to induce the expression of the FGF1 transcript | 2 h | 15 min |
| sDl1: soluble non-transmembrane form (extracellular domain) of the Notch ligand Delta1 (protein, left off: small tags and cut ends, soluble non-transmembrane form (extracellular domain) of the Notch ligand Delta1) QVWSSGVFELKLQEFVNKKGLLGNRNCCRGGAGPPPCACRTFFRVCLKHYQASVSPEPPCTYGSAVTPVLGVDSFSLPDGGGADSAFSNPIRFPFGFTWPGTFSLIIEALHTDSPDDLATENPERLISRLATQRHLTVGEEWSQDLHSSGRTDLKYSYRFVCDEHYYGEGCSVFCRPRDDAFGHFTCGERGEKVCNPGWKGPYCTEPICLPGCDEQHGFCDKPGECKCRVGWQGRYCDECIRYPGCLHGTCQQPWQCNCQEGWGGLFCNQDLNYCTHHKPCKNGATCTNTGQGSYTCSCRPGYTGATCELGIDECDPSPCKNGGSCTDLENSYSCTCPPGFYGKICELSAMTCADGPCFNGGRCSDSPDGGYSCRCPVGYSGFNCEKKIDYCSSSPCSNGAKCVDLGDAYLCRCQAGFSGRHCDDNVDDCASSPCANGGTCRDGVNDFSCTCPPGYTGRNCSAPVSRCEHAPCHNGATCHERGHRYVCECARGYGGPNCQFLLPELPPGPAVVDLTEKLEGQGGPFPW | express the FGF3, FGF4 and FGF9 transcripts |  |  |  |  |  |  |  |
